From patent US9493411B2 (AbbVie Inc., priority 2013, dated 2016)

Assays:
BRD4 (BDI_K57-E168) = biological target: T1, BRD4 (BDI_K57-E168) (Homo sapiens, UniProt O60885); experiment: TR-FRET bromodomain binding assay, BRD4 first bromodomain; conditions: His-tagged BD1, Alexa647-labeled probe 100 nM; Ki calculated from IC50
T1 construct: BD1: amino acids K57-E168; made in house
Summary of the method: (§1)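 His-tagged BRD4 BD1 (K57-E168) or BD2 at 8 nM, 1 nM Eu-anti-His antibody and Alexa647 BET-inhibitor probe (100 nM for BDI, 30 nM for BDII) in pH 6.0 phosphate buffer, 2% DMSO, compound 50 μM-0.85 nM; 1 h at RT, TR-FRET read. IC50 by 4-parameter fit, Ki from probe Kd and concentration.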

BRD4 (BDII_E352-M457) = biological target: T2, BRD4 (BDII_E352-M457) (Homo sapiens, UniProt O60885); experiment: TR-FRET bromodomain binding assay, BRD4 second bromodomain; conditions: His-tagged BD2, Alexa647-labeled probe 30 nM; Ki calculated from IC50
T2 construct: made in house
Summary of the method: as §1

[1] = system: breast cancer cell line MX-1; experiment: MX-1 cell line proliferation assay; type: cell-based; conditions: Homo sapiens, MX1, 72 h, MX-1 cells, 3-day proliferation assay, Cell Titer Glo; read-out: Cellular proliferation: EC50
Procedure: The impact of compounds of the Examples on cancer cell proliferation was determined using the breast cancer cell line MX-1 (ATCC) in a 3-day proliferation assay and the data are reported in Table 1. MX-1 cells were maintained in RPMI 1640 medium (Sigma) supplemented with 10% FBS at 37° C. and an atmosphere of 5% CO2. For compound testing, MX-1 cells were plated in 96-well black bottom plates at a density of 5000 cells/well in 90 μL of culture media and incubated at 37° overnight to allow cell adhesion and spreading. Compound dilution series were prepared in DMSO via a 3-fold serial dilution from 3 mM to 0.1 μM. The DMSO dilution series were then diluted 1:100 in phosphate buffered saline, and 10 μL of the resulted solution were added to the appropriate wells of the MX-1 cell plate. The final compound concentrations in the wells were 3, 1, 0.3, 0.1, 0.03, 0.01, 0.003, 0.001, 0.0003 and 0.0001 μM.
Luminescence readings from the Cell Titer Glo assay were normalized to the DMSO treated cells and analyzed using the GraphPad Prism software with sigmoidal curve fitting to obtain EC50s. The minimum significant ratio (MSR) was determined to evaluate assay reproducibility (Eastwood et al., (2006) J Biomol Screen, 11: 253-261).

Row | SMILES | Ki (BRD4 (BDI_K57-E168)) [nM] | Ki (BRD4 (BDII_E352-M457)) [nM] | EC50 [1] [nM]
1 | Cc1[nH]c(-c2ccccc2NCC2CCNC2)cc1C(N)=O (stereo not drawn) [Example 42, 2-methyl-5-{2-[(pyrrolidin-3-ylmethyl)amino]phenyl}-1H-pyrrole-3-carboxamide] | 446 | 14500 | > 10000
2 | Cc1[nH]c(-c2ccccc2Oc2cccc(Cl)c2)cc1C(N)=O [Example 142, 5-[2-(3-chlorophenoxy)phenyl]-2-methyl-1H-pyrrole-3-carboxamide] | 357 | 775 | 2130
3 | Cc1[nH]c(-c2ccccc2NCC2CCOC2)cc1C(N)=O (single isomer, unassigned) [Example 18] | 183 | 2340 | 2850
4 | Cc1ccc(-c2cc(C(N)=O)c(C)[nH]2)c(C)c1 [Example 90, 5-(2,4-dimethylphenyl)-2-methyl-1H-pyrrole-3-carboxamide] | 2500 | 5180 | 6300
5 | COC/C=C/c1ccc(-c2cc(C(N)=O)c(C)[nH]2)cc1 [Example 107, 5-{4-[(1E)-3-methoxyprop-1-en-1-yl]phenyl}-2-methyl-1H-pyrrole-3-carboxamide] | 4020 | 1980 | 8600
6 | Cc1[nH]c(-c2ccccc2NC2C3CC4CC(C3)CC2C4)cc1C(N)=O (stereo not drawn) [Example 72, 2-methyl-5-{2-[tricyclo[3.3.1.1^3,7]dec-2-ylamino]phenyl}-1H-pyrrole-3-carboxamide] | 78.1 | 416 | 167
7 | Cc1cccc(Oc2ccccc2-c2cc(C(N)=O)c(C)[nH]2)c1 [Example 134, 2-methyl-5-[2-(3-methylphenoxy)phenyl]-1H-pyrrole-3-carboxamide] | 493 | 1170 | > 10000
8 | Cc1[nH]c(-c2ccccc2NC2CCOC2)cc1C(N)=O (stereo not drawn) [Example 63, 2-methyl-5-[2-(tetrahydrofuran-3-ylamino)phenyl]-1H-pyrrole-3-carboxamide] | 352 | 6900 | 2460
9 | Cc1[nH]c(-c2cc(S(N)(=O)=O)ccc2Oc2ccc(F)cc2F)cc1C(N)=O [Example 168, 5-[2-(2,4-difluorophenoxy)-5-sulfamoylphenyl]-2-methyl-1H-pyrrole-3-carboxamide] | 106 | 757 | > 3000
10 | Cc1[nH]c(-c2cc(CCO)ccc2OCc2ccccc2)cc1C(N)=O [Example 167, 5-[2-(benzyloxy)-5-(2-hydroxyethyl)phenyl]-2-methyl-1H-pyrrole-3-carboxamide] | 627 | 2250 | > 3000
11 | COC(=O)CCc1ccccc1Oc1ccccc1-c1cc(C(N)=O)c(C)[nH]1 [Example 133, methyl 3-{2-[2-(4-carbamoyl-5-methyl-1H-pyrrol-2-yl)phenoxy]phenyl}propanoate] | 310 | 576 | 1830
12 | COc1ccc(Oc2ccccc2-c2cc(C(N)=O)c(C)[nH]2)cc1 [Example 137, 5-[2-(4-methoxyphenoxy)phenyl]-2-methyl-1H-pyrrole-3-carboxamide] | 218 | 1020 | 4880
13 | Cc1[nH]c(-c2ccccc2NCc2cccs2)cc1C(N)=O [Example 38, 2-methyl-5-{2-[(thiophen-2-ylmethyl)amino]phenyl}-1H-pyrrole-3-carboxamide] | 622 | 1140 | 3800
14 | Cc1[nH]c(-c2ccccc2NCCC2CCN(C(=O)OC(C)(C)C)CC2)cc1C(N)=O [Example 44, tert-butyl 4-(2-{[2-(4-carbamoyl-5-methyl-1H-pyrrol-2-yl)phenyl]amino}ethyl)piperidine-1-carboxylate] | 322 | 1790 | > 10000
15 | Cc1[nH]c(-c2ccccc2NCC2CCCO2)cc1C(N)=O (stereo not drawn) [Example 13, 2-methyl-5-{2-[(tetrahydrofuran-2-ylmethyl)amino]phenyl}-1H-pyrrole-3-carboxamide] | 774 | 4540 | 3300
16 | Cc1[nH]c(-c2ccccc2NCc2cccc(N)c2)cc1C(N)=O [Example 53, 5-{2-[(3-aminobenzyl)amino]phenyl}-2-methyl-1H-pyrrole-3-carboxamide] | 659 | 3190 | 4170
17 | Cc1[nH]c(-c2ccccc2NS(=O)(=O)Cc2ccc(Cl)cc2)cc1C(N)=O [Example 85, 5-(2-{[(4-chlorobenzyl)sulfonyl]amino}phenyl)-2-methyl-1H-pyrrole-3-carboxamide] | 1850 | 13200 | > 3000
18 | Cc1[nH]c(-c2ccccc2-n2cnc3cc(O)ccc32)cc1C(N)=O [Example 146, 5-[2-(5-hydroxy-1H-benzimidazol-1-yl)phenyl]-2-methyl-1H-pyrrole-3-carboxamide] | 74.9 | 326 | 1610
